Results taken from PubChem BioAssay (NCI).
Values joined by “and” are separate entries in the source; they are usually repeats but may differ in a detail not shown here. Equal entries are not always repeated.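 48-hour exposure; five concentrations; linearly interpolated endpoints. The concentration for 50% growth inhibition is given as GI50. Definition used: TGI = concentration required for complete inhibition of growth.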

Experiments:
Test in all cases: growth of human tumour cells (NCI), 48 h
HOP-62 NSCLC = tested on: HOP-62 NSCLC
CCRF-CEM leukemia = tested on: CCRF-CEM leukemia
SK-OV-3 ovarian = tested on: SK-OV-3 ovarian
OVCAR-8 ovarian = tested on: OVCAR-8 ovarian
U251 CNS = tested on: U251 CNS
OVCAR-5 ovarian = tested on: OVCAR-5 ovarian
A498 renal = tested on: A498 renal
SNB-19 CNS = tested on: SNB-19 CNS
UACC-257 melanoma = tested on: UACC-257 melanoma
MCF7 breast = tested on: MCF7 breast
SK-MEL-5 melanoma = tested on: SK-MEL-5 melanoma
K-562 leukemia = tested on: K-562 leukemia
NCI-H522 lung = tested on: NCI-H522 lung
ACHN renal = tested on: ACHN renal
SW-620 colon = tested on: SW-620 colon
SF-268 CNS = tested on: SF-268 CNS
NCI/ADR-RES ovarian = tested on: NCI/ADR-RES ovarian
SR leukemia = tested on: SR leukemia
SK-MEL-2 melanoma = tested on: SK-MEL-2 melanoma
OVCAR-3 ovarian = tested on: OVCAR-3 ovarian
HT29 colon = tested on: HT29 colon
MALME-3M melanoma = tested on: MALME-3M melanoma
SNB-75 CNS = tested on: SNB-75 CNS
NCI-H460 lung = tested on: NCI-H460 lung
UO-31 renal = tested on: UO-31 renal
MDA-MB-435 = tested on: MDA-MB-435
MOLT-4 leukemia = tested on: MOLT-4 leukemia
CAKI-1 renal = tested on: CAKI-1 renal
PC-3 prostate = tested on: PC-3 prostate
BT-549 breast = tested on: BT-549 breast

Q: For NCCCNCCCNc1nc2ccccc2c2[nH]c3ccccc3c12, which TGI (HOP-62 NSCLC) is on record?
A: 1180 nM

Q: What about the GI50 (CCRF-CEM leukemia) of the same molecule?
A: 126 nM

Q: What about the TGI (CCRF-CEM leukemia) of the same molecule?
A: 2420 nM

Q: And the GI50 (SK-OV-3 ovarian)?
A: 743 nM and 322 nM

Q: And the TGI (SK-OV-3 ovarian)?
A: 4140 nM and 3420 nM

Q: And the GI50 (OVCAR-8 ovarian)?
A: 34.6 nM

Q: And the TGI (OVCAR-8 ovarian)?
A: 4300 nM

Q: And the GI50 (U251 CNS)?
A: 93.8 nM

Q: And the TGI (U251 CNS)?
A: 1320 nM

Q: What about the GI50 (OVCAR-5 ovarian) of the same molecule?
A: 215 nM

Q: What about the TGI (OVCAR-5 ovarian) of the same molecule?
A: 1610 nM

Q: And the GI50 (A498 renal)?
A: 995 nM

Q: And the TGI (A498 renal)?
A: 2440 nM

Q: What about the GI50 (SNB-19 CNS) of the same molecule?
A: 78.5 nM

Q: What about the TGI (SNB-19 CNS) of the same molecule?
A: 1420 nM

Q: What about the GI50 (UACC-257 melanoma) of the same molecule?
A: 2310 nM

Q: And the TGI (UACC-257 melanoma)?
A: 6200 nM

Q: And the GI50 (MCF7 breast)?
A: 8.04 nM

Q: And the TGI (MCF7 breast)?
A: 1850 nM

Q: What about the GI50 (SK-MEL-5 melanoma) of the same molecule?
A: 362 nM

Q: What about the TGI (SK-MEL-5 melanoma) of the same molecule?
A: 1810 nM

Q: And the GI50 (K-562 leukemia)?
A: 57.8 nM

Q: What about the GI50 (NCI-H522 lung) of the same molecule?
A: 7.16 nM

Q: What about the TGI (NCI-H522 lung) of the same molecule?
A: 563 nM

Q: What about the GI50 (ACHN renal) of the same molecule?
A: 112 nM

Q: And the TGI (ACHN renal)?
A: 2820 nM

Q: And the GI50 (SW-620 colon)?
A: 190 nM

Q: And the TGI (SW-620 colon)?
A: 1640 nM

Q: What about the GI50 (SF-268 CNS) of the same molecule?
A: 26.4 nM

Q: And the TGI (SF-268 CNS)?
A: 1720 nM

Q: And the GI50 (NCI/ADR-RES ovarian)?
A: 645 nM and 621 nM

Q: And the TGI (NCI/ADR-RES ovarian)?
A: > 100000 nM

Q: And the GI50 (SR leukemia)?
A: 5.9 nM

Q: What about the TGI (SR leukemia) of the same molecule?
A: 1170 nM

Q: What about the GI50 (SK-MEL-2 melanoma) of the same molecule?
A: 703 nM

Q: And the TGI (SK-MEL-2 melanoma)?
A: 2420 nM

Q: And the GI50 (OVCAR-3 ovarian)?
A: 449 nM

Q: And the TGI (OVCAR-3 ovarian)?
A: 2430 nM

Q: What about the GI50 (HT29 colon) of the same molecule?
A: 48.2 nM

Q: What about the TGI (HT29 colon) of the same molecule?
A: 1860 nM

Q: What about the GI50 (MALME-3M melanoma) of the same molecule?
A: 1000 nM

Q: And the TGI (MALME-3M melanoma)?
A: 2740 nM

Q: And the GI50 (SNB-75 CNS)?
A: 224 nM

Q: What about the TGI (SNB-75 CNS) of the same molecule?
A: 1290 nM

Q: And the GI50 (NCI-H460 lung)?
A: 39.9 nM

Q: And the TGI (NCI-H460 lung)?
A: 1740 nM

Q: What about the GI50 (UO-31 renal) of the same molecule?
A: 309 nM

Q: What about the TGI (UO-31 renal) of the same molecule?
A: 3170 nM

Q: What about the GI50 (MDA-MB-435) of the same molecule?
A: 581 nM

Q: What about the TGI (MDA-MB-435) of the same molecule?
A: 2080 nM

Q: And the GI50 (MOLT-4 leukemia)?
A: 25.2 nM

Q: And the TGI (MOLT-4 leukemia)?
A: 3620 nM

Q: What about the GI50 (CAKI-1 renal) of the same molecule?
A: 458 nM

Q: What about the TGI (CAKI-1 renal) of the same molecule?
A: 2310 nM

Q: What about the GI50 (PC-3 prostate) of the same molecule?
A: 481 nM

Q: And the TGI (PC-3 prostate)?
A: 2140 nM

Q: And the GI50 (BT-549 breast)?
A: 1050 nM

Q: What about the TGI (BT-549 breast) of the same molecule?
A: 2400 nM
